From ChEMBL document CHEMBL1121821, “Pyrimidine acyclic nucleosides. 5-Substituted 1-[(2-aminoethoxy)methyl]uracils as candidate antivirals” (J Med Chem, 1981) come the findings set out here.

The structures appear in SMILES notation. Activity calls are given as the source filed them. No cut-off for these calls is given here.

One test has as its system Human adenovirus 5. Put plainly: Compound was tested for antiviral activity against adenovirus type 5; little or no activity. The class given is functional, organism-based.
The test system of another test is Human alphaherpesvirus 1. Briefly: Compound was tested for plaque-inhibition against HSV-1 in cell culture at 50 ug per disk; Inactive. The class given is functional, organism-based.
The subject of the next test is Vaccinia virus. Put plainly: Compound was tested for antiviral activity against vaccinia virus; little or no activity. The class given is functional, organism-based. The settings on record: Orthopoxvirus vaccinia.
In another test the test system is L cells. Put plainly: Cytotoxic activity against Detroit 98 or mouse L cell culture at 10E-4 M concentration; No significant activity. In kind it is functional, cell-based. The settings on record: L929.
Test [1] relates to Thymidine kinase (Human alphaherpesvirus 1). Put plainly: Compound was tested for affinity against HSV-1 thymidine kinase; Low activity.
The test system is the same in test [2]. Put plainly: Compound was tested for affinity against HSV-1 Thymidine kinase; Low activity.

Regarding `Cc1cn(COCCN)c(=O)[nH]c1=O`, the figures for the Activity entry (in the test with Human adenovirus 5; in the test with Vaccinia virus; in test [1]) were “Little or no activity”, “Little or no activity” and “Low activity”, respectively. Further, the result in the test with Human alphaherpesvirus 1 was inactive. In the test with L cells, the Cytotoxicity entry is “inactive”.

Take `NCCOCn1cc(Cl)c(=O)[nH]c1=O`: the figures for the Activity entry (with Human adenovirus 5; in the test with Vaccinia virus; in test [2]) were “Little or no activity”, “Little or no activity” and “Low activity”, respectively. The result in the test on Human alphaherpesvirus 1 was inactive. For the same molecule, the Cytotoxicity entry in the test with L cells was “inactive”.

Turning to `NCCOCn1cc(I)c(=O)[nH]c1=O`, the Activity entry is on record as “Little or no activity” in the test with Human adenovirus 5, “Little or no activity” in the test on Vaccinia virus and “Low activity” in test [2]. In the test with Human alphaherpesvirus 1, the outcome was inactive. Also, in the test with L cells, the Cytotoxicity result was “inactive”.

Turning to `NCCOCn1cc(Br)c(=O)[nH]c1=O`, the values for the Activity result (in the test on Human adenovirus 5; with Vaccinia virus; in test [1]) were “Little or no activity”, “Little or no activity” and “Low activity”, respectively. Moreover, the outcome in the test on Human alphaherpesvirus 1 was inactive. For the same molecule, the Cytotoxicity entry with L cells was “inactive”.

Take `NCCOCn1ccc(=O)[nH]c1=O`: the figures for the Activity entry (with Human adenovirus 5; in the test with Vaccinia virus; in test [1]) were “Little or no activity”, “Little or no activity” and “Low activity”, respectively. Besides, the result in the test with Human alphaherpesvirus 1 was inactive. Besides, the Cytotoxicity result in the test on L cells was “inactive”.
